Tests used:
M3 muscarinic receptors = M3 muscarinic receptors (Homo sapiens, UniProt P20309); details: kinetics studies (Haddad et al.); cited from earlier work
M1-M3 receptors = details: cited from earlier work
[1] = inhaled; asthmatic subjects (Makker); cited from earlier work
[2] = system: chemotactic response in the guinea pig conjunctiva; details: guinea pig conjunctiva (Chan); cited from earlier work
TNFα release = details: R,R-glycopyrrolate alone, up to 10 μmol/l; LPS 100 ng/ml
Excerpt: (§1) Not only TNFα but also IL-2 plays an important role in inflammatory airway diseases. It is known that in certain forms of asthma (e.g. intrinsic and occupational), particular subsets of T cells produce, among others, IL-2 (Ricci et al.; J Investig Allergol Clin Immunol 1994; 4:214-20). Moreover, allergic patients have special populations of T cells which can be induced to secrete IL-2 (McHugh et al.; Clin Exp Allergy 1993; 23:137-44). […] Therefore, the influence of R,R-glycopyrrolate in combination with cysLT-receptor antagonists on TNFα- and interleukin(IL)-2-release was investigated by using human peripheral blood mononuclear cells (PBMCs). The investigations were approved by the University Ethics Committee according to the International Declarations of Helsinki and Tokyo.
(§2) PBMCs were isolated from heparinized blood samples of healthy donors by density gradient centrifugation. An equal volume of Hanks buffer (Life Technologies, Heidelberg, Germany) is added to heparinized whole blood samples. 15 ml Histopaque-1077 (Sigma, Deisenhofen, Germany) are overlayed with a maximum of 40 ml of blood/Hanks mixture were centrifuged for 30 min at room temperature (2000 rpm). A visible band containing PBMCs is transferred to a fresh tube and washed twice with Hanks-buffer. […]

IL-2 release = details: R,R-glycopyrrolate alone, up to 10 μmol/l; TPA 25 nM / ionomycin 1 μg/ml
Excerpt: as §1, §2

[3] = inhaled; asthmatic subjects (Christie); cited from earlier work
[4] = inhaled; asthmatic subjects (Lammers); cited from earlier work
[5] = topically into the eyes; allergic conjunctivitis in rats (Papathanassiou et al.); cited from earlier work
IL-2 expression = details: ovalbumin-sensitized Brown Norway rats (Lin et al.); cited from earlier work

Chain of M3 muscarinic receptors (P20309 whole entry): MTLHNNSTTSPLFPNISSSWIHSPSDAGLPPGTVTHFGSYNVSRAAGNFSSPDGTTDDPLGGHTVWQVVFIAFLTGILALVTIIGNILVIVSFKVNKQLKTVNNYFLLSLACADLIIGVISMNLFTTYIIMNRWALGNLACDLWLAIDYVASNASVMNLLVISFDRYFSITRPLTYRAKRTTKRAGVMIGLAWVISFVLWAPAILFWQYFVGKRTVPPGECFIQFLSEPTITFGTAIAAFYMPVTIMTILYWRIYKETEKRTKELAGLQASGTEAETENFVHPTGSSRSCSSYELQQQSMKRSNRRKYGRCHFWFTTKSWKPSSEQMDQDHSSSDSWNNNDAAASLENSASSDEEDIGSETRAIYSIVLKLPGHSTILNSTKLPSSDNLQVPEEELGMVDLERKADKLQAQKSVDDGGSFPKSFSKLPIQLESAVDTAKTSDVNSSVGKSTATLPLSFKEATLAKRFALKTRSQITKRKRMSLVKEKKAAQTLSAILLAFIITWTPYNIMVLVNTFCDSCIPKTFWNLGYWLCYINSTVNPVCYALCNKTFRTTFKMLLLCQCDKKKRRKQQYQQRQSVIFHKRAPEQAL

For `C[N+]1(C)CCC(OC(=O)C(O)(c2ccccc2)C2CCCC2)C1` (stereo not shown) [Glycopyrrolate], the “dissociation from M3 muscarinic receptors” value (M3 muscarinic receptors) is given as “dissociates slowly” and the “selectivity in binding to the M1-M3 receptors” value (M1-M3 receptors) is given as “no selectivity”.

In the case of `COc1cc(C(=O)NS(=O)(=O)c2ccccc2C)ccc1Cc1cn(C)c2ccc(NC(=O)OC3CCCC3)cc12` [ICI 204,219], the “protection against exercise-induced bronchoconstriction” value [1] is listed as “protected significantly”.

For `CN(C)C(=O)CCSC(SCCC(=O)O)c1cccc(/C=C/c2ccc3ccc(Cl)cc3n2)c1` (stereo not shown) [MK-571], the “in vivo chemotactic response” value [2] is given as “completely inhibited”.

With `C[N+]1(C)CC[C@@H](OC(=O)[C@](O)(c2ccccc2)C2CCCC2)C1.[Br-]` [R,R-glycopyrrolate] the “influence on LPS-induced TNFα release” value (TNFα release) was “did not influence” and the “influence on stimulated IL-2 release” value (IL-2 release) was “had no influence”.

For `O=C(O)CCS[C@H](c1ccccc1CCCCCCCCc1ccccc1)[C@@H](O)C(=O)O` [pobilukast (SK&F 104353), pobilukast], the LT induced bronchoconstriction [3] is listed as “inhibited significantly”.

For `CN(C)C(=O)CCS[C@H](SCCC(=O)O)c1cccc(/C=C/c2ccc3ccc(Cl)cc3n2)c1` [verlukast (MK-0679), verlukast], the “mean FEV1” value [4] is listed as “significant improvement”.

For `COc1cc(C(=O)NS(=O)(=O)c2ccccc2C)ccc1Cc1cn(C)c2ccc(NC(=O)OC3CCCC3)cc12` [zafirlukast], the “development of symptoms and mediator release” value [5] is given as “effectively inhibit” and the IL-2 expression (IL-2 expression) is given as “able to decrease”.

— patent US8268864B2, “Combination of anticholinergics and leukotriene receptor antagonists for the treatment of respiratory diseases” (Meda Pharma GmbH & Co. KG, priority 2005, dated 2012)
